Measured values from patent US10132816B2, “Measurement of FGF21 as a biomarker of fructose metabolism” (Beth Israel Deaconess Medical Center, Inc., priority 2013, dated 2018).

Key:
[1] = tested on: hepatic ChREBP-β, ChREBP transcriptional targets and circulating FGF21; assay: mice fed chow, 60% dextrose or 60% fructose diets for 7 weeks: hepatic mRNA expression and circulating FGF21; assay type: in vivo; conditions: 7 weeks of 60% diet
Excerpt: FIGS. 1A-1C are bar graphs of hepatic mRNA expression (FIG. 1A, 1B) and circulating (FIG. 1C) FGF21 levels in 15-week-old mice fed chow, 60% dextrose, or 60% fructose diets for 7 weeks, sacrificed in the ad lib fed state. * P<0.05 compared to all other groups. n=5-7 per group.
The FGF21 gene contains a ChREBP binding site in its promoter and exposure of primary hepatocytes to high glucose concentrations increases FGF21 expression in a ChREBP dependent manner^37,38. To determine whether ChREBP might regulate circulating FGF21 levels we fed mice chow, 60% dextrose, or 60% fructose diets. […] Thus, we hypothesized that the increase in circulating FGF21 levels associated with features of the metabolic syndrome might be due to activation of hepatic ChREBP and that fructose consumption might be important for this.

circulating FGF21 levels = assay: oral fructose load versus oral glucose load, circulating FGF21 in human subjects; assay type: in vivo; conditions: two hours after ingestion of 75 grams of fructose, lean healthy subjects
Excerpt: FIGS. 2A-2B show plasma FGF21 levels: FIG. 2A) following ingestion of 75 grams glucose (n=8) and FIG. 2B) Plasma FGF21 levels following ingestion of 75 grams fructose in human subjects (n=10).
To test whether fructose ingestion can acutely regulate circulating FGF21 in human subjects, we compared the effects of administering a 75 gram oral glucose load versus a 75 gram oral fructose load on circulating FGF21 levels in lean healthy subjects. Ingestion of glucose has no effect on FGF21 levels (FIG. 2A and ^14). In contrast, circulating FGF21 levels increase ˜4-fold two hours after ingestion of 75 grams of fructose (FIG. 2B). Thus oral fructose ingestion, but not glucose ingestion acutely and robustly increases circulating FGF21 levels. To our knowledge FGF21 is the only known measurable circulating biomarker that specifically assesses an individual's acute metabolic response to fructose ingestion.

[2] = fructose: at first pass; cited from earlier work

O=C(CO)[C@@H](O)[C@H](O)[C@H](O)CO [fructose]
circulating FGF21 levels [1]: highest levels
effect of fructose on hepatic ChREBP-β expression relative to that of dextrose [1]: ~3 fold
expression of ChREBP transcriptional targets (Pklr, Fasn, FGF21) in liver [1]: greater increase
hepatic expression of ChREBP-β compared to chow ([1]; ad lib fed state): markedly increases
increase of circulating FGF21 levels (circulating FGF21 levels): ~4 fold
share of an oral load taken up / extracted by the liver [2]: ~100%
